Data published in patent publication US11833156B2, “Heterocyclic compounds as pad inhibitors” (JUBILANT EPIPAD LLC, priority 2017, dated 2023).
pIC50: −log10 of the molar value. Structures can show the parent of a compound that is named as a salt.

Each compound was assayed against PAD4 enzyme (Homo sapiens (Human), UniProt Q9UM07) (assay: Ammonia Release Biochemical Assay (citrullination detected via ammonia release)). Settings: PAD4 120 nM, substrate BAEE, 60-min preincubation, read-out: NH3 release.
Description: Ammonia Release Biochemical Assay
Citrullination assay was detected via ammonia release. PAD4 enzyme was diluted to 120 nM in assay buffer (100 mM HEPES, 50 mM NaCl, 2 mM DDT, 0.6 mg/mL BSA, pH 7.4) added to wells containing various concentration of compound or DMSO vehicle (1% final) in black 384 well plate. Following a 60-min preincubation at room temperature, the reaction was initiated by the addition of substrate (1.5 mM BAEE in 200 mM HEPES, 50 mM NaCl, 350 uM CaCl2, 2 mM, pH 7.4). The reaction was stopped after 60 min by addition of stop/detection buffer containing 50 mM EDTA, 2.6 mM of o-phthaladehyde and 2.6 mM DTT. Assay was incubated at room temperature for 90 min before measuring fluorescence's (λex 405/λem 460 nm) on Tecan reader. IC50 was calculated using XL-fit software model 205. (Ref: Nat Chem Biol. 2015 March; 11(3):189-91).

PAD4 enzyme, sequence (Q9UM07 whole entry): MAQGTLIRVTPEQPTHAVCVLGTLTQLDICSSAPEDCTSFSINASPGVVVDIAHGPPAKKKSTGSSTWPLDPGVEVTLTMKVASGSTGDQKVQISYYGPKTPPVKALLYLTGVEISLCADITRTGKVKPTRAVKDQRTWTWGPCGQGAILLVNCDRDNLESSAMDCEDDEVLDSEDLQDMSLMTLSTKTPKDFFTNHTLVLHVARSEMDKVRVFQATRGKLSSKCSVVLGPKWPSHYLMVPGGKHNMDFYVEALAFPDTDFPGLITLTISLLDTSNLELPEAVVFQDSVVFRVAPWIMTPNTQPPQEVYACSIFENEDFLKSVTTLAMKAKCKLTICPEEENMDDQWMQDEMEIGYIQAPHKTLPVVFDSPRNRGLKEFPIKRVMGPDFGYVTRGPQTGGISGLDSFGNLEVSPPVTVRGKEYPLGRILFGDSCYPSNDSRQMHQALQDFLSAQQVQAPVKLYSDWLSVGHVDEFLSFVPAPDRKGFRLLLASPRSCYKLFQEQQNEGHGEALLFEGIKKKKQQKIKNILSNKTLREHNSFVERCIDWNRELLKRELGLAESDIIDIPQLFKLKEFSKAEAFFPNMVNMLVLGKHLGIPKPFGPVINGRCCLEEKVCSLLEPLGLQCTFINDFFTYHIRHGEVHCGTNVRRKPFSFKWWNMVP

pIC50 | Structure (SMILES)
≥ 6.00 | N[C@@H]1CCCN(C(=O)c2cc3c4c(c2)nc(-c2cc5ccc(F)cc5n2Cc2ccc(F)cc2)n4CCO3)C1 [Example 49, (R)-(3-aminopiperidin-1-yl)(2-(6-fluoro-1-(4-fluorobenzyl)-1H-indol-2-yl)-3,4-dihydro-5-oxa-1,2a-diazaacenaphthylen-7-yl)methanone]
≥ 6.00 | N[C@@H]1CCCN(C(=O)c2cc3c4c(c2)nc(-c2cc5ccccc5n2Cc2ccc(CO)cc2)n4CCO3)C1 [Example 37, (R)-(3-aminopiperidin-1-yl)(2-(1-(4-(hydroxymethyl)benzyl)-1H-indol-2-yl)-3,4-dihydro-5-oxa-1,2a-diazaacenaphthylen-7-yl)methanone trifluoroacetic acid salt]
≥ 6.00 | COCCn1c(-c2nc3cc(C(=O)N4CCC[C@@H](N)C4)cc4c3n2CCO4)cc2cc(F)ccc21 [Example 48, (R)-(3-aminopiperidin-1-yl)(2-(5-fluoro-1-(2-methoxyethyl)-1H-indol-2-yl)-3,4-dihydro-5-oxa-1,2a-diazaacenaphthylen-7-yl)methanone]
5.00 to 6.00 | N[C@@H]1CCCN(C(=O)c2cc3c4c(c2)nc(-c2cc5ccccc5n2CC2CC2)n4CCN3S(=O)(=O)CCc2ccccc2)C1 [Example 79, (R)-(3-aminopiperidin-1-yl)(2-(1-(cyclopropylmethyl)-1H-indol-2-yl)-6-(phenethylsulfonyl)-5,6-dihydro-4H-imidazo[1,5,4-de]quinoxalin-8-yl)methanone]
≤ 5.00 | CN(C)C/C=C/C(=O)N[C@@H]1CCCN(C(=O)c2cc3c4c(c2)nc(-c2cc5ccccc5n2CC2CC2)n4CCO3)C1 [Example 38, (R,E)-N-(1-(2-(1-(cyclopropylmethyl)-1H-indol-2-yl)-3,4-dihydro-5-oxa-1,2a-diazaacenaphthylene-7-carbonyl)piperidin-3-yl)-4-(dimethylamino)but-2-enamide trifluoroacetic acid salt]
5.00 to 6.00 | N[C@@H]1CCCN(C(=O)c2cc3c4c(c2)nc(-c2cc5ccccc5n2Cc2cncnc2)n4CCO3)C1 [Example 29, (R)-(3-aminopiperidin-1-yl)(2-(1-(pyrimidin-5-ylmethyl)-1H-indol-2-yl)-3,4-dihydro-5-oxa-1,2a-diazaacenaphthylen-7-yl)methanone]
≥ 6.00 | COCCn1c(-c2nc3cc(C(=O)N4CCC[C@@H](N)C4)cc4c3n2CCO4)cc2ccccc21 [Example 20, (R)-(3-aminopiperidin-1-yl)(2-(1-(2-methoxyethyl)-1H-indol-2-yl)-3,4-dihydro-5-oxa-1,2a-diazaacenaphthylen-7-yl)methanone]
5.00 to 6.00 | COCCn1c(-c2nc3cc(C(=O)N4CCC[C@@H](N)C4)cc4c3n2CCO4)cc2cc(F)c(F)cc21 [Example 54, (R)-(3-aminopiperidin-1-yl)(2-(5,6-difluoro-1-(2-methoxyethyl)-1H-indol-2-yl)-3,4-dihydro-5-oxa-1,2a-diazaacenaphthylen-7-yl)methanone]
≥ 6.00 | N[C@@H]1CCCN(C(=O)c2cc3c4c(c2)nc(-c2cc5ccccc5n2Cc2ncccc2F)n4CCO3)C1 [Example 26, (R)-(3-aminopiperidin-1-yl)(2-(1-((3-fluoropyridin-2-yl)methyl)-1H-indol-2-yl)-3,4-dihydro-5-oxa-1,2a-diazaacenaphthylen-7-yl)methanone]
5.00 to 6.00 | COCCn1c(-c2nc3cc(C(=O)N4CCC[C@@H](N)C4)cc4c3n2CCO4)cc2ccc(F)cc21 [Example 52]

Structure (SMILES) | pIC50
N[C@@H]1CCCN(C(=O)c2cc3c4c(c2)nc(-c2cc5ccccc5n2CC2CC2)n4CCN3S(=O)(=O)C2CC2)C1 [Example 82, (R)-(3-aminopiperidin-1-yl)(2-(1-(cyclopropylmethyl)-1H-indol-2-yl)-6-(cyclopropylsulfonyl)-5,6-dihydro-4H-imidazo[1,5,4-de]quinoxalin-8-yl)methanone] | 5.00 to 6.00
